# How the values were obtained:
# LRH-1 LBD = target: T1, LRH-1 LBD (Homo sapiens, UniProt O00482); test: Thermofluor (DSF) assay, purified LRH-1 LBD-His protein; assay type: binding; conditions: 50 μM compound, relative to DLPC-bound LRH-1; for ΔTm at 50 µM: read-out: ΔTm (mean +/− SEM) (° C.)
# T1 construct: LRH-1 LBD (residues 299-541) in the pMSC7 vector was expressed in BL21 (DE3) pLysS E. coli; made in house; host or cells: E. coli BL21 (DE3) pLysS
# Procedure: Thermofluor assays—Purified LRH-1 LBD-His protein (0.2 mg/ml) was incubated overnight with 50 μM of each compound at 4° C. The final DMSO concentration in the reactions was 1%. SYPRO orange dye (Invitrogen) was then added at a 1:1000 dilution. Reactions were heated at a rate of 0.5° C. per minute, using a StepOne Plus Real Time PCR System (ThermoFisher). […] Data were analyzed by first subtracting baseline fluorescence (ligands+SYPRO with no protein) and then fitting the curves using the Bolzman equation (GraphPad Prism, v6) to determine the Tm. […]
# LRH-1 = target: T2, LRH-1 (Homo sapiens, UniProt O00482); test: Luciferase reporter assay (SHP-luc) in HeLa cells transfected with full-length LRH-1; assay type: cell-based; conditions: for EC50 / EC50 (μM): HeLa cells, SHP-luc reporter, 24 hours, 0.03-30 μM; for Relative Efficacy: fold increase over baseline (DMSO-treated cells) relative to the fold increase induced by RJW100
# T2 construct: The transfected plasmids included full-length LRH-1 in a pCI vector; expressed in transfected cells; host or cells: HeLa
# Procedure: EC50 and Relative Activity values were calculated from luciferase reporter assays.
# T2 sequence (O00482 whole entry): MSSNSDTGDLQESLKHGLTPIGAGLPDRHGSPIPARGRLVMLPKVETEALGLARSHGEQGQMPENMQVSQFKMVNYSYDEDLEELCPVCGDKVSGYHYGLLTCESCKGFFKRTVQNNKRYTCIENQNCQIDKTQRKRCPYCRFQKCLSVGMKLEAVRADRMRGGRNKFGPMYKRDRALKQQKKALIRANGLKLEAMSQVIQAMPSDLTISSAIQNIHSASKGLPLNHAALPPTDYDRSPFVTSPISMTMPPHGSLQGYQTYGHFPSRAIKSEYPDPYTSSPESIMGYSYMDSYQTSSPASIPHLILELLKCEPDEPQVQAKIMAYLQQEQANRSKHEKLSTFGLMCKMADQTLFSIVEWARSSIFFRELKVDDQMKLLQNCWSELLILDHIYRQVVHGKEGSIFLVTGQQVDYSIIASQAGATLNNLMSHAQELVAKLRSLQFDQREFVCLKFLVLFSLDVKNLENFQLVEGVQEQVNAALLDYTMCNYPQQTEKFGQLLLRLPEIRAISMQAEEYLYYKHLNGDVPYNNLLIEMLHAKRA
# T1 sequence (O00482 299-541): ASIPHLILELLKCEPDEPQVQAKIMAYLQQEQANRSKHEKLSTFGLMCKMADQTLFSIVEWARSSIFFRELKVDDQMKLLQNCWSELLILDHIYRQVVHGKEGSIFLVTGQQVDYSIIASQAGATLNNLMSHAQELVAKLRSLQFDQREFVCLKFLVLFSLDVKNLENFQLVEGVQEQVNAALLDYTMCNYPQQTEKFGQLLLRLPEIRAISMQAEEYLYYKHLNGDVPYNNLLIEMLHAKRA
Compound,ΔTm at 50 µM (LRH-1 LBD),EC50 (LRH-1),Relative Efficacy (LRH-1),EC50 (μM) (LRH-1),ΔTm (mean +/− SEM) (° C.) (LRH-1 LBD)
"C=C(c1ccccc1)C12CCC(O)C1CC(CCCCCCCCCCCOP(=O)([O-])OCC[N+](C)(C)C)=C2c1ccccc1 (stereo not drawn) [Compound 12g, 11-(6-exo-hydroxy-3-phenyl-3a-(1-phenylvinyl)-1,3a,4,5,6,6a-hexahydropentalen-2-yl)undecyl (2-(trimethylammonio)ethyl) phosphate]",-1.7 °C,5.1 µM,0.93,–,–
"C=C(c1ccccc1)[C@@]12CC[C@H](OC(N)=O)C1CC(CCCCCC)=C2c1ccccc1 (stereo partly drawn) [Compound 29-endo, (Endo or Exo)-5-hexyl-4-phenyl-3a-(1-phenylvinyl)-1,2,3,3a,6,6a-hexahydropentalen-1-yl carbamate]",2.8 °C,–,0,cnc,–
"C=C(c1ccccc1)[C@@]12CC[C@@H](OC(N)=O)C1CC(CCCCCC)=C2c1ccccc1 (stereo partly drawn) [Compound 29-exo, (Endo or Exo)-5-hexyl-4-phenyl-3a-(1-phenylvinyl)-1,2,3,3a,6,6a-hexahydropentalen-1-yl carbamate]",1.54 °C,–,0.14,cnc,–
"C=C(c1ccccc1)[C@@]12CC[C@H](OS(C)(=O)=O)C1CC(CCCCCC)=C2c1ccccc1 (stereo partly drawn) [Compound 30-endo, (Endo or Exo) 5-hexyl-4-phenyl-3a-(1-phenylvinyl)-1,2,3,3a,6,6a-hexahydropentalen-1-yl methanesulfonate]",3 °C,0.5 µM,0.72,–,–
"C=C(c1ccccc1)[C@@]12CC[C@@H](OS(C)(=O)=O)C1CC(CCCCCC)=C2c1ccccc1 (stereo partly drawn) [Compound 30-exo, (Endo or Exo) 5-hexyl-4-phenyl-3a-(1-phenylvinyl)-1,2,3,3a,6,6a-hexahydropentalen-1-yl methanesulfonate]",1.1 °C,1 µM,0.14,–,–
"C=C(c1ccccc1)[C@@]12CC[C@H](N=[N+]=[N-])C1CC(CCCCCC)=C2c1ccccc1 (stereo partly drawn) [Compound 31-endo, (Endo or Exo)-5-hexyl-4-phenyl-3a-(1-phenylvinyl)-1,2,3,3a,6,6a-hexahydropentalen-1-azide]",< 1 °C,5 µM,0.70,–,–
"C=C(c1ccccc1)[C@@]12CC[C@@H](N=[N+]=[N-])C1CC(CCCCCC)=C2c1ccccc1 (stereo partly drawn) [Compound 31-exo, (Endo or Exo)-5-hexyl-4-phenyl-3a-(1-phenylvinyl)-1,2,3,3a,6,6a-hexahydropentalen-1-azide]",< 1 °C,2 µM,0.45,–,–
"C=C(c1ccccc1)C12CCC(C#N)C1CC(CCCCCC)=C2c1ccccc1 (stereo not drawn) [Compound 32-endo, (Endo or Exo)-5-hexyl-4-phenyl-3a-(1-phenylvinyl)-1,2,3,3a,6,6a-hexahydropentalene-1-carbonitrile]",–,–,0,–,ns (Ns = Tm changes were less than 1° C.)
"C=C(c1ccccc1)C12CCC(N)C1CC(CCCCCC)=C2c1ccccc1 (stereo not drawn) [Compound 33-endo, (Endo or Exo)-5-hexyl-4-phenyl-3a-(1-phenylvinyl)-1,2,3,3a, 6,6a-hexahydropentalen-1-amine]",–,–,0.56,–,ns (Ns = Tm changes were less than 1° C.)
"C=C(c1ccccc1)[C@@]12CC[C@@H](N)C1CC(CCCCCC)=C2c1ccccc1 (stereo partly drawn) [Compound 33-exo, (Endo or Exo)-5-hexyl-4-phenyl-3a-(1-phenylvinyl)-1,2,3,3a, 6,6a-hexahydropentalen-1-amine]",-3 °C,–,0.56,–,–
"C=C(c1ccccc1)[C@@]12CC[C@@H](NC(C)=O)C1CC(CCCCCC)=C2c1ccccc1 (stereo partly drawn) [Compound 35-exo, N-((endo or exo)-5-hexyl-4-phenyl-3a-(1-phenylvinyl)-1,2,3,3a,6,6a-hexahydropentalen-1-yl) acetamide]",-1.1 °C,17 µM,–,–,–

# From US12415770B2, “Modulators of liver receptor homologue 1 (LRH-1) and uses” (Emory University, priority 2017, dated 2025)
